The source made the active and inactive calls. No cut-off for these calls is given here.
How the values were obtained:
[1] = Inhibition of sRANKL-induced TRAP activity in mouse RAW264 cells by p-nitrophenolate release based TRAP assay; type: functional, cell-based; conditions: RAW264.7
[2] = Inhibition of chymotrypsin-like activity of proteasome in rat liver using Suc-Leu-Leu-Val-Tyr-MCA fluorogenic substrate
Mus musculus [3] = organism: Mus musculus; experiment: Inhibition of sRANKL-induced AKT phosphorylation in mouse RAW264 cells at 20 uM pre-treated for 2 hrs before sRANKL stimulation measured 15 mins after sRANKL stimulation by Western blotting method; type: cell-based
Mus musculus [4] = organism: Mus musculus; experiment: Inhibition of sRANKL-induced […] degradation in mouse RAW264 cells at 20 uM pre-treated for 2 hrs before sRANKL stimulation measured 15 mins after sRANKL stimulation by Western blotting method; type: cell-based
RAW264 [5] = experiment: Inhibition of sRANKL-induced TRAP activity in mouse RAW264 cells at 20 uM by p-nitrophenolate release based TRAP assay; type: functional, cell-based
RAW264 [6] = experiment: Inhibition of sRANKL-induced osteoclastogenesis in mouse RAW264 cells assessed as reduction in TRAP-positive multinuclear osteoclasts formation at 20 uM incubated for 4 days by TRAP assay; type: functional, cell-based
Mus musculus [7] = organism: Mus musculus; experiment: Inhibition of sRANKL-induced […] degradation in mouse RAW264 cells at 10 to 50 uM pre-treated for 2 hrs before sRANKL stimulation measured 15 mins after sRANKL stimulation by Western blotting method; type: cell-based

IC50 [1]: 2000 nM
IC50 [2]: 600 nM
SMILES: C[C@@]12CCC(=O)c3coc(c31)C(=O)c1cc3c(cc12)C(=O)C=CC3=O [HELENAQUINONE]
inhibition (Mus musculus [3]): Active
inhibition (Mus musculus [4]): Active
inhibition (RAW264 [5]): Active
inhibition (RAW264 [6]): Active
inhibition (Mus musculus [7]): Active

— ChEMBL document CHEMBL3351929, “Halenaquinone inhibits RANKL-induced osteoclastogenesis” (Bioorg Med Chem Lett, 2014)
